Test results from patent US20060105458A1, “Caged tetracycline (derivatives), their generation, and their use for photoactivated gene expression” (priority 2002, published 2006).

Legend:
[1] = tested on: tet-dependent chloramphenicol transferase (CAT) construct in organotypic hippocampal Müller cultures; assay: Photoactivation of organotypic hippocampal Müller cultures (tet-dependent CAT transgene, immunohistochemistry); type: cell-based, rat or mouse
Protocol: FIG. 3 depicts a second assay to test photoactivation in tissues, exemplified by the use of organotypic hippocampal Müller cultures. […] After administration of caged doxycycline to the cells by adding it to the medium and subsequent photoactivation, CAT expression was assessed immuno-histochemically. […] CAT expression in the irradiated slice is mainly seen in cells at the border of the slice where cells become infected with viruses much more rapidly than in the center.
FIG. 4 illustrates the result of a further experiment performed by the present inventors. That is, in order to test if photoactivated gene expression can be used to induce gene expression in a locally restricted manner, adenovirus-infected Müller cultures were irradiated only in one half of the slice. […] Again, fluorescence is mostly seen at the slice boundary where the virus most readily infects cells of the culture. Thus, photoactivated gene expression provides the researcher with excellent spatial control over gene expression.
Mouse or rat hippocampal Müller cultures were prepared according to standard procedures from P5-7 animals. […] Following overnight incubation, 0.15 μM caged doxycycline was added to the medium, incubated for 1 h, and slices or selected regions of slices were irradiated for 10 sec with an upright fluorescence microscope using an appropriate filter (XF3000, OMEGA OPTICAL). Following overnight incubation, CAT fluorescence was detected immunohistochemically with a polyclonal anti-CAT antibody (Sigma).

[2] = tested on: tet-dependent GFP construct in organotypic hippocampal Müller cultures; assay: Photoactivation of organotypic hippocampal Müller cultures (tet-dependent GFP transgene); type: cell-based, rat or mouse; details: 1.5 μM, optical fiber 200 μm, irradiated three times for 2 min with an interval of 1 hour
Protocol: FIG. 5 depicts a modified assay to test photoactivation in tissues, exemplified again by the use of organotypic hippocampal Müller cultures. […] To determine the maximal level of GFP expression that is possible with this approach, unmodified doxycycline was added in saturating concentrations (2 μM). […] The bright-field image on the right allows normal visualization of the culture (FIG. 5b).
FIG. 6: In a new set of experiments, photoactivation was done by using thin optical fibers (200 μm) for irradiation with the UV light coming from a Xenon arc lamp. The UV beam could be positioned with the help of a recording electrode that was aligned to be in the center of the circular irradiation area. About half of the culture was irradiated with this arrangement. The position of the electrode is indicated by the red dot. The culture was incubated with 1.5 μM caged doxycycline one hour prior to irradiation. Cultures were irradiated three times for 2 min with an interval of 1 hour. […] FIG. 6b indicates the electrode position relative to the whole culture.

[3] = final concentration 0.1 to 1 μM, within 24 h at 37° C.
[4] = tested on: CHO cells expressing the fusion protein and containing a tetracycline-dependent EGFP construct; assay: Photoactivation of CHO cells (EGFP reporter); type: cell-based
Protocol: CHO cells mentioned above (that is, cells expressing the fusion protein^3 and containing a tetracycline-dependent EGFP) were used as a simple cell culture assay were propagated and plated according to standard cell culture procedures in Ham's F-12 medium. Cells were plated in 35 mm dishes with a glass bottom from Mattek. Two days after plating, cells were overlaid with 1% low-gelling agarose in Ham's F-12 containing 1 mM Na-butyrate and 0.3 μM caged doxycycline. Subsequently, a subset of cells was locally irradiated with a hand-held 6W UV lamp (365 nm) for 30 sec. Following overnight incubation, EGFP expression was assessed with a fluorescence microscope.

Row | CAT expression, unirradiated control slice ([1]; no irradiation) | CAT expression, irradiated slice ([1]; single pulse of UV irradiation, 0.15 μM caged doxycycline) | Spontaneous decomposition under incubation conditions [3] | Compound | GFP expression after local UV irradiation [2] | EGFP fluorescence, irradiated cells ([4]; CHO cells incubated with caged compound (0.3 μM), UV 365 nm 30 sec, overnight incubation) | EGFP fluorescence, cells not irradiated ([4]; cells in the same dish that were not irradiated) | Local expression of genes/transgenes on irradiation ([1]; irradiated CHO cells or organotypic hippocampal Müller cultures)
1 | did not display any CAT expression | CAT expression in a few cells | about 10% | 1-(4,5-dimethoxy-2-nitrophenyl)-ethyl-caged doxycycline [DMNPE-caged doxycycline] | GFP positive cells that are within the circular irradiation area |  |  | 
2 |  |  |  | COc1cc(C(C)O[C@]23C(=O)C(C(N)=O)=C(O)[C@H](N(C)C)[C@H]2[C@H](O)[C@@H]2C(=C3O)C(=O)c3c(O)cccc3[C@H]2C)c([N+](=O)[O-])cc1OC (stereo partly shown) [DMNPE-caged doxycycline, 1-(4,5-dimethoxy-2-nitrophenyl)-ethyl-caged doxycycline] |  | widespread EGFP fluorescence | did not fluoresce | specific, time-dependent, and local expression of genes/transgenes
